ChEMBL document CHEMBL5385899, “Design, synthesis, spectroscopic characterization, single crystal X-ray analysis, in vitro α-amylase inhibition assay, DPPH free radical evaluation and computational studies of naphtho[2,3-d]imidazole-4,9-dione appended 1,2,3-triazoles” (Eur J Med Chem, 2023)
Converted amounts (≈) assume the structure as drawn.

Legend:
Alpha amylase = biological target: T1, Alpha amylase (Homo sapiens, UniProt P0DUB6); assay: Inhibition of alpha amylase (unknown origin) using starch as substrate preincubated for 30 mins followed by substrate addition and measured after 30 mins by absorbance based analysis
T1 sequence (P0DUB6 whole entry): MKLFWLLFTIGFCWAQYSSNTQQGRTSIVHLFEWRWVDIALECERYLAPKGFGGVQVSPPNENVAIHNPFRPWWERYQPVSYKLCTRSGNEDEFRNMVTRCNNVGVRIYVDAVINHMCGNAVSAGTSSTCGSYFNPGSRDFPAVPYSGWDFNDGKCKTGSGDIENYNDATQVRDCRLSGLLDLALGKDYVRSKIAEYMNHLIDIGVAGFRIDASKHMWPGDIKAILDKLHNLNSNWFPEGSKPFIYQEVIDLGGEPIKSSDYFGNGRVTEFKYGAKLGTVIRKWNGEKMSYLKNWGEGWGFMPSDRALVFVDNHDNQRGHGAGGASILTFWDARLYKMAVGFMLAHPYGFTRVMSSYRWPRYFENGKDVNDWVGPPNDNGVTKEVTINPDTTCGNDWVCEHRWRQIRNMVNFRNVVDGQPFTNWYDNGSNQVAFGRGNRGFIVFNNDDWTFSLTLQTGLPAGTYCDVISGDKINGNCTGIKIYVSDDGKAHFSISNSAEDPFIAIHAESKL

[1] = Antioxidant activity assessed as DPPH radical scavenging activity incubated for 30 mins under dark condition; assay type: functional

Row | SMILES | IC50 (Alpha amylase) | IC50 [1]
1 | O=C1c2ccccc2C(=O)c2c1nc(-c1ccc(F)cc1)n2Cc1cn(-c2ccc(F)cc2)nn1 | 22.04 µg/mL (≈ 47.2 µM) | 9.57 µg/mL (≈ 20.5 µM)
2 | COc1ccc(-c2nc3c(n2Cc2cn(-c4ccc(OC)cc4)nn2)C(=O)c2ccccc2C3=O)cc1 | 25.49 µg/mL (≈ 51.9 µM) | 9.55 µg/mL (≈ 19.4 µM)
3 | COc1ccc(-n2cc(Cn3c(-c4ccc(F)cc4)nc4c3C(=O)c3ccccc3C4=O)nn2)cc1 | 19.87 µg/mL (≈ 41.4 µM) | 10.84 µg/mL (≈ 22.6 µM)
4 | COc1ccc(-c2nc3c(n2Cc2cn(-c4ccc(F)cc4)nn2)C(=O)c2ccccc2C3=O)c(OC)c1 | 23.81 µg/mL (≈ 46.7 µM) | 9.92 µg/mL (≈ 19.5 µM)
5 | COc1ccc(-c2nc3c(n2Cc2cn(-c4ccc(C)cc4)nn2)C(=O)c2ccccc2C3=O)cc1 | 24.58 µg/mL (≈ 51.7 µM) | 10.14 µg/mL (≈ 21.3 µM)
6 | COc1cccc(-c2nc3c(n2Cc2cn(-c4ccc(C)cc4)nn2)C(=O)c2ccccc2C3=O)c1 | 18.42 µg/mL (≈ 38.7 µM) | 9.5 µg/mL (≈ 20 µM)
7 | COc1ccc(-c2nc3c(n2Cc2cn(-c4ccccc4)nn2)C(=O)c2ccccc2C3=O)c(OC)c1OC | 18.51 µg/mL (≈ 35.5 µM) | 9.63 µg/mL (≈ 18.5 µM)
8 | COc1ccc(-c2nc3c(n2Cc2cn(-c4ccc(F)cc4)nn2)C(=O)c2ccccc2C3=O)c(OC)c1OC | 23.94 µg/mL (≈ 44.4 µM) | 10.41 µg/mL (≈ 19.3 µM)
9 | COc1ccc(-c2nc3c(n2Cc2cn(-c4ccc([N+](=O)[O-])cc4)nn2)C(=O)c2ccccc2C3=O)c(OC)c1 | 20.24 µg/mL (≈ 37.7 µM) | 10.07 µg/mL (≈ 18.8 µM)
10 | CCCCn1cc(Cn2c(-c3cccc(OC)c3)nc3c2C(=O)c2ccccc2C3=O)nn1 | 21.11 µg/mL (≈ 47.8 µM) | 9.82 µg/mL (≈ 22.2 µM)
11 | COc1ccc(-c2nc3c(n2Cc2cn(-c4ccc(C)cc4)nn2)C(=O)c2ccccc2C3=O)c(OC)c1OC | 22.87 µg/mL (≈ 42.7 µM) | 10.19 µg/mL (≈ 19 µM)
12 | COc1ccc(-c2nc3c(n2Cc2cn(-c4ccc([N+](=O)[O-])cc4)nn2)C(=O)c2ccccc2C3=O)c(OC)c1OC | 18.11 µg/mL (≈ 32 µM) | 10.1 µg/mL (≈ 17.8 µM)
13 | O=C1c2ccccc2C(=O)c2c1nc(-c1ccc(F)cc1)n2Cc1cn(-c2ccccc2)nn1 | 26.01 µg/mL (≈ 57.9 µM) | 10.32 µg/mL (≈ 23 µM)
14 | O=C1c2ccccc2C(=O)c2c1nc(-c1ccc(F)cc1)n2Cc1cn(-c2ccc([N+](=O)[O-])cc2)nn1 | 18.63 µg/mL (≈ 37.7 µM) | 9.69 µg/mL (≈ 19.6 µM)
15 | CCCCn1cc(Cn2c(-c3ccc(F)cc3)nc3c2C(=O)c2ccccc2C3=O)nn1 | 19.72 µg/mL (≈ 45.9 µM) | 9.41 µg/mL (≈ 21.9 µM)
16 | COc1cccc(-c2nc3c(n2Cc2cn(-c4ccccc4)nn2)C(=O)c2ccccc2C3=O)c1 | 25.07 µg/mL (≈ 54.3 µM) | 10.05 µg/mL (≈ 21.8 µM)

Row | SMILES | IC50 (Alpha amylase) | IC50 [1]
17 | CCCCn1cc(Cn2c(-c3ccc(OC)c(OC)c3OC)nc3c2C(=O)c2ccccc2C3=O)nn1 | 23.49 µg/mL (≈ 46.8 µM) | 9.23 µg/mL (≈ 18.4 µM)
18 | COc1ccc(-c2nc3c(n2Cc2cn(-c4ccc(C)cc4)nn2)C(=O)c2ccccc2C3=O)c(OC)c1 | 21.71 µg/mL (≈ 42.9 µM) | 11.19 µg/mL (≈ 22.1 µM)
19 | COc1cccc(-c2nc3c(n2Cc2cn(-c4ccc(F)cc4)nn2)C(=O)c2ccccc2C3=O)c1 | 18.41 µg/mL (≈ 38.4 µM) | 9.3 µg/mL (≈ 19.4 µM)
20 | CCCCn1cc(Cn2c(-c3ccc(OC)cc3)nc3c2C(=O)c2ccccc2C3=O)nn1 | 24.25 µg/mL (≈ 54.9 µM) | 10.76 µg/mL (≈ 24.4 µM)
21 | COc1ccc(-c2nc3c(n2Cc2cn(-c4ccc([N+](=O)[O-])cc4)nn2)C(=O)c2ccccc2C3=O)cc1 | 18.62 µg/mL (≈ 36.8 µM) | 10.88 µg/mL (≈ 21.5 µM)
22 | COc1ccc(-c2nc3c(n2Cc2cn(-c4ccccc4)nn2)C(=O)c2ccccc2C3=O)c(OC)c1 | 25.44 µg/mL (≈ 51.8 µM) | 11.09 µg/mL (≈ 22.6 µM)
23 | COc1ccc(-n2cc(Cn3c(-c4ccc(OC)c(OC)c4OC)nc4c3C(=O)c3ccccc3C4=O)nn2)cc1 | 17.83 µg/mL (≈ 32.3 µM) | 8.99 µg/mL (≈ 16.3 µM)
24 | COc1ccc(-c2nc3c(n2Cc2cn(-c4ccc(F)cc4)nn2)C(=O)c2ccccc2C3=O)cc1 | 24.19 µg/mL (≈ 50.5 µM) | 10.58 µg/mL (≈ 22.1 µM)
25 | COc1ccc(-n2cc(Cn3c(-c4cccc(OC)c4)nc4c3C(=O)c3ccccc3C4=O)nn2)cc1 | 22.73 µg/mL (≈ 46.2 µM) | 9.8 µg/mL (≈ 19.9 µM)
26 | Cc1ccc(-n2cc(Cn3c(-c4ccc(F)cc4)nc4c3C(=O)c3ccccc3C4=O)nn2)cc1 | 24.08 µg/mL (≈ 52 µM) | 9.61 µg/mL (≈ 20.7 µM)
27 | COc1cccc(-c2nc3c(n2Cc2cn(-c4ccc([N+](=O)[O-])cc4)nn2)C(=O)c2ccccc2C3=O)c1 | 21.18 µg/mL (≈ 41.8 µM) | 9.2 µg/mL (≈ 18.2 µM)
28 | CCCCn1cc(Cn2c(-c3ccc(OC)cc3OC)nc3c2C(=O)c2ccccc2C3=O)nn1 | 20.64 µg/mL (≈ 43.8 µM) | 10.26 µg/mL (≈ 21.8 µM)
29 | COc1ccc(-n2cc(Cn3c(-c4ccc(OC)cc4OC)nc4c3C(=O)c3ccccc3C4=O)nn2)cc1 | 19.3 µg/mL (≈ 37 µM) | 10.65 µg/mL (≈ 20.4 µM)
30 | COc1ccc(-c2nc3c(n2Cc2cn(-c4ccccc4)nn2)C(=O)c2ccccc2C3=O)cc1 | 20.73 µg/mL (≈ 44.9 µM) | 10.15 µg/mL (≈ 22 µM)
31 | Cc1cc(C(C)(C)C)c(O)c(C(C)(C)C)c1 [BUTYLATED HYDROXYTOLUENE] | – | 9.41 µg/mL (≈ 42.7 µM)
